For assay [1], the system named is Plasmodium falciparum. As to the kind of experiment: ST_JUDE: Plasmodium falciparum K1 EC50 (uM) as measured by SYBR green dye. It counts as functional, organism-based.
The subject of assay [2] is Plasmodium falciparum. As to the kind of experiment: ST_JUDE: Plasmodium falciparum 3D7 EC50 (uM) as measured by SYBR green dye. It counts as functional, organism-based.

Turning to `O=C(Nc1cccc(C(F)(F)F)c1)c1cc2ccccc2oc1=O`, the EC50 with Plasmodium falciparum [1] and with Plasmodium falciparum [2] was greater than 15 µM each time.

`CC(=O)Nc1ccc(S(=O)(=O)Nc2ccc(Nc3nc(C)cc(N(C)C)n3)cc2)cc1`: the 50% effective concentration (EC50) (in general, the concentration giving half of the maximal effect) with Plasmodium falciparum [1] is 6.27 µM; with Plasmodium falciparum [2], 1.95 µM.

`COc1ccccc1C1CC(c2ccccc2)=NN1C(=O)c1ccccc1` (centres undefined): the values for the concentration giving a half-maximal response (EC50) in the assay with Plasmodium falciparum [1] and with Plasmodium falciparum [2] were 4.32 µM and 0.855 µM, respectively.

As to `O=C(O)/C=C1\SC(=O)NC1=O`, the EC50 in the assay on Plasmodium falciparum [1] and in the assay on Plasmodium falciparum [2] was greater than 15 µM each time.

In the case of `CCCOc1ccc(-c2[nH]ncc2Oc2ccccc2)c(O)c1`, the half-maximal effective concentration (EC50) amounted to 2.49 µM in the assay on Plasmodium falciparum [1] and 4.7 µM in the assay on Plasmodium falciparum [2].

In the case of `CCc1cccc(NC(=O)C2c3ccccc3C(=O)N(C3CCCC3)C2c2cccs2)c1` (centres undefined), the concentration giving a half-maximal response (EC50) in the assay on Plasmodium falciparum [1] amounted to 2.01 µM; in the assay with Plasmodium falciparum [2], 2.29 µM.

For `CCOC(=O)C1=C(c2ccccc2)N=C(S)NC1c1cc(Cl)ccc1OC` (centres undefined), the 50% effective concentration (EC50) in the assay with Plasmodium falciparum [1] and in the assay on Plasmodium falciparum [2] was greater than 15 µM each time.

As for `CN1c2ccccc2N(C)C1c1ccc(Sc2ccc(C3N(C)c4ccccc4N3C)o2)o1`, the EC50 in the assay with Plasmodium falciparum [1] is 1.65 µM; in the assay with Plasmodium falciparum [2], greater than 15 µM.

Consider `CCN(CC)CCn1c(=N)n(CCOc2ccc(Cl)cc2Cl)c2ccccc21`, for which the 50% effective concentration (EC50) was 7.48 µM in the assay with Plasmodium falciparum [1] and greater than 15 µM in the assay on Plasmodium falciparum [2].

For `COc1cccc(Nc2nc(N3CCN(CCO)CC3)nc3c2cnn3-c2ccccc2)c1`, the EC50 stood at 4.71 µM in the assay with Plasmodium falciparum [1] and 3.31 µM in the assay with Plasmodium falciparum [2].

In the case of `Cc1ccc(CN2CCN(Cc3c(C)nn(C)c3Cl)CC2CCO)cc1` (centres undefined), the EC50 with Plasmodium falciparum [1] and in the assay on Plasmodium falciparum [2] was greater than 15 µM each time.

In the case of `Cc1nc2ccc(OCC(C)C)cc2c(O)c1CN(C)C1CCN(C)CC1`, the EC50 in the assay on Plasmodium falciparum [1] and in the assay with Plasmodium falciparum [2] was greater than 15 µM in each case.

As for `N#Cc1cccc(NC(=O)C2c3ccccc3C(=O)N(C3CCCC3)C2c2cccs2)c1` (centres undefined), the figures for the EC50 in the assay with Plasmodium falciparum [1] and in the assay on Plasmodium falciparum [2] were 0.253 µM and 0.188 µM, respectively.

`CCOc1ccccc1/C=C/C(=O)Nc1ccc2nc(N3CCN(C)CC3)cc(C)c2c1`: the EC50 in the assay on Plasmodium falciparum [1] was greater than 15 µM; with Plasmodium falciparum [2], 0.437 µM.

`O=C(CCc1ccccc1)N(Cc1cccnc1)c1nc2ccc(F)cc2s1`: the EC50 in the assay with Plasmodium falciparum [1] and in the assay on Plasmodium falciparum [2] was greater than 15 µM in each case.

Take `Cc1cc(C)c(C)c(OCCCCCCN2CCCC2)c1`: the concentration for a half-maximal effect (EC50) in the assay on Plasmodium falciparum [1] and in the assay with Plasmodium falciparum [2] was greater than 15 µM each time.

Regarding `CN(CCO)CCCCOc1ccc2c(c1)C(=O)c1cc(OCCCCN(C)CCO)ccc1-2`, the EC50 in the assay with Plasmodium falciparum [1] was 3.64 µM; in the assay on Plasmodium falciparum [2] it was greater than 15 µM.

`O=C(Nc1ccccc1O)c1ccc(-c2ccc(Cl)cc2Cl)o1`: the results for the half-maximal effective concentration (EC50) in the assay with Plasmodium falciparum [1] and with Plasmodium falciparum [2] were greater than 15 µM and 2.46 µM, respectively.

In the case of `COc1ccc(C2CC(=O)C3=C(C2)NC(=O)CC3c2ccc(SC)cc2)cc1OC` (centres undefined), the EC50 with Plasmodium falciparum [1] is 4.79 µM; with Plasmodium falciparum [2], 3.65 µM.

Turning to `CCc1ccc(Oc2c(C(F)(F)F)oc3c(CN4CCOCC4)c(O)ccc3c2=O)cc1`, the EC50 in the assay with Plasmodium falciparum [1] and with Plasmodium falciparum [2] was greater than 15 µM throughout.

With `CC1CCN(Cc2cc(COCc3ccccc3)c3cccnc3c2O)CC1`, the EC50 with Plasmodium falciparum [1] came out at 3.19 µM; with Plasmodium falciparum [2], 2.87 µM.

For `COc1ccc(OC)c2sc(N(Cc3cccnc3)C(=O)c3cccc(C)c3)nc12`, the half-maximal effective concentration (EC50) in the assay with Plasmodium falciparum [1] is 2.33 µM; with Plasmodium falciparum [2], greater than 15 µM.

For `COc1cccc(C2Nc3ccc(C(C)=O)cc3C3C=CCC32)c1OC` (centres undefined), the half-maximal effective concentration (EC50) with Plasmodium falciparum [1] stood at 8.22 µM; in the assay on Plasmodium falciparum [2], 3.42 µM.

Turning to `CCCC(=O)N1CCN(c2ccc(NC(=O)c3cccc(OCC)c3)cc2Cl)CC1`, the EC50 in the assay on Plasmodium falciparum [1] and with Plasmodium falciparum [2] was greater than 15 µM in each case.

In the case of `Cc1cc(C)nc(/N=C(\N)Nc2ccc(Cl)cc2C(=O)c2ccccc2)n1`, the EC50 with Plasmodium falciparum [1] came to 8.05 µM; in the assay with Plasmodium falciparum [2] it was 3.59 µM.

With `CN(C)CCCNCc1ccc2[nH]c3c(c2c1)CCCC3`, the concentration for a half-maximal effect (EC50) with Plasmodium falciparum [1] is greater than 15 µM; in the assay with Plasmodium falciparum [2] it was 3.4 µM.

Regarding `CCOc1cc(/C=N/N=C(N)N)ccc1OCc1ccccc1`, the values for the EC50 in the assay with Plasmodium falciparum [1] and with Plasmodium falciparum [2] were 6.56 µM and 0.867 µM, respectively.

For the compound `O=C(O)c1ccc(NC2=C(n3nnc4ccccc43)C(=O)c3ccccc3C2=O)cc1`, the values for the EC50 in the assay with Plasmodium falciparum [1] and in the assay on Plasmodium falciparum [2] were 1.49 µM and greater than 15 µM, respectively.

As for `Oc1ccc(Br)cc1CN1CCN(Cc2ccccc2C(F)(F)F)CC1`, the figures for the EC50 with Plasmodium falciparum [1] and in the assay on Plasmodium falciparum [2] were 0.45 µM and 1.88 µM, respectively.

Turning to `COC(=O)c1ccc(NC(=O)CSc2ccc3nnc(-c4ccc(C)cc4)n3n2)cc1`, the concentration giving a half-maximal response (EC50) in the assay with Plasmodium falciparum [1] and in the assay on Plasmodium falciparum [2] was greater than 15 µM each time.

As for `CCOC(=O)c1cnc2ccc(OC)cc2c1NCCCN1CCOCC1`, the EC50 with Plasmodium falciparum [1] came out at 4.38 µM; in the assay on Plasmodium falciparum [2], 5.94 µM.

With `CCCN1CCN(CCCNC(=S)Nc2ccc3nc(N4CCN(C)CC4)cc(C)c3c2)CC1`, the concentration giving a half-maximal response (EC50) in the assay on Plasmodium falciparum [1] worked out at 6.85 µM; with Plasmodium falciparum [2], 5.43 µM.

Take `CCCCN(C)Cc1c(C)nc2ccc(OCc3ccccc3)cc2c1O`: the EC50 in the assay with Plasmodium falciparum [1] and with Plasmodium falciparum [2] was greater than 15 µM in each case.

Consider `Oc1ccc(Br)cc1CN1CCN(Cc2ccc(Cl)cc2)CC1`, for which the 50% effective concentration (EC50) with Plasmodium falciparum [1] turned out to be 0.215 µM; in the assay on Plasmodium falciparum [2], 1.48 µM.

Regarding `CCC1(C)CC(CCNCc2ccc(F)cc2)(c2ccc(F)cc2)CCO1` (centres undefined), the EC50 turned out to be 0.518 µM with Plasmodium falciparum [1] and 1.15 µM in the assay on Plasmodium falciparum [2].

On to `CC(=O)N(C1=C(NCCO)C(=O)c2ccccc2C1=O)c1cccc(Br)c1`, for which the EC50 with Plasmodium falciparum [1] is 0.0286 µM; in the assay on Plasmodium falciparum [2] it was 0.0171 µM.

For `O=C(Nc1cccc(Br)c1)C1(c2ccccc2)CC1(Cl)Cl` (centres undefined), the EC50 amounted to 3.11 µM with Plasmodium falciparum [1] and 4.43 µM with Plasmodium falciparum [2].

With `COc1ccc(/C=C/c2cc[n+](C)cc2)cc1`, the EC50 in the assay with Plasmodium falciparum [1] is 3.82 µM; with Plasmodium falciparum [2], 3.4 µM.

With `Cc1ccc(C)c(NC(=O)c2c(-c3c(Cl)cccc3Cl)noc2C)c1`, the EC50 in the assay with Plasmodium falciparum [1] came to 4.36 µM; with Plasmodium falciparum [2] it was 0.537 µM.

For `CCC(C)c1ccccc1OCC(O)CNC1CCCC1` (centres undefined), the EC50 in the assay with Plasmodium falciparum [1] stood at 0.959 µM; with Plasmodium falciparum [2], 1.73 µM.

For `Cc1ccnc(N2C(=O)c3ccccc3C2Nc2ccccc2C)c1` (centres undefined), the EC50 in the assay on Plasmodium falciparum [1] and in the assay with Plasmodium falciparum [2] was greater than 15 µM in each case.

Regarding `Cc1cccc(NC(=O)c2cc3ccccc3cc2O)c1`, the results for the EC50 with Plasmodium falciparum [1] and in the assay with Plasmodium falciparum [2] were 0.602 µM and 1.15 µM, respectively.

For `COc1ccc(Cl)cc1NC(=O)C1c2ccccc2C(=O)N(CC(C)C)C1c1cccs1` (centres undefined), the concentration for a half-maximal effect (EC50) in the assay with Plasmodium falciparum [1] worked out at 0.386 µM; in the assay with Plasmodium falciparum [2], 0.367 µM.

On to `O=C(Cc1ccc(Cl)cc1)Nc1ccc(-c2nc3ccccc3[nH]2)cc1`, for which the EC50 with Plasmodium falciparum [1] and in the assay on Plasmodium falciparum [2] was greater than 15 µM each time.

Regarding `Oc1cccc2ccc[n+](CC(O)Cn3c4ccccc4c4ccccc43)c12` (centres undefined), the 50% effective concentration (EC50) in the assay with Plasmodium falciparum [1] is greater than 15 µM; in the assay on Plasmodium falciparum [2], 1.31 µM.

Regarding `Cc1cccc(NC(c2ccc(Cl)cc2)c2ccc3cccnc3c2O)n1` (centres undefined), the values for the concentration for a half-maximal effect (EC50) in the assay with Plasmodium falciparum [1] and in the assay with Plasmodium falciparum [2] were 3.14 µM and 3.54 µM, respectively.

On to `CCCCCC(O)(c1ccccc1)C(CN1CCOCC1)c1ccccc1` (centres undefined), for which the EC50 in the assay on Plasmodium falciparum [1] was 2.04 µM; with Plasmodium falciparum [2], 3.26 µM.

With `CC(=O)N(C1=C(N2CCCCC2)C(=O)c2ccccc2C1=O)c1ccc(C)cc1`, the EC50 was 4.48 µM in the assay on Plasmodium falciparum [1] and 7.46 µM in the assay on Plasmodium falciparum [2].

On to `CCOC(=O)C1=C(CN(C)c2ccc(F)cc2)NC(=O)NC1c1ccc(F)cc1` (centres undefined), for which the EC50 is 1.23 µM in the assay on Plasmodium falciparum [1] and 3.51 µM in the assay on Plasmodium falciparum [2].

On to `CN(C)c1cc[n+](CC(=O)c2ccc(Cl)cc2)cc1`, for which the EC50 in the assay with Plasmodium falciparum [1] came out at 1.74 µM; in the assay on Plasmodium falciparum [2], 2.44 µM.

As to `CN1CCN(c2nc(Nc3ccc(O)cc3)nc3ccccc23)CC1`, the 50% effective concentration (EC50) in the assay with Plasmodium falciparum [1] stood at 6.2 µM; in the assay on Plasmodium falciparum [2] it was 2.75 µM.

As to `CCC1=[N+](C)c2cccc3cccc(c23)N1C`, the results for the 50% effective concentration (EC50) in the assay on Plasmodium falciparum [1] and with Plasmodium falciparum [2] were 4.41 µM and 5.13 µM, respectively.
